# Results taken from patent US4906753A, “Preparation of 2,6-disubstituted-5-cyano-4-pyrimidinyloxyacetic acid aldose reductase inhibitors” (American Home Products Corporation, priority 1988, dated 1990).
# Read-outs that look alike come from different tables or passages of the source.
# Columns and labels:
# [1] = biological target: T1, aldose reductase (Bos taurus, UniProt P16116); assay: in vitro aldose reductase inhibition (modified Hayman and Kinoshita procedure); assay type: biochemical, bovine (lens); settings: for inhibition at 10 µM: read-out: % Inhibition IN VITRO 10^-5 M; for inhibition at 1 µM: 10^-6 M; for inhibition at 0.1 µM: 10^-7 M
# T1 construct: preparation of the enzyme from bovine lens; from tissue; host or cells: bovine lens
# Excerpt: In the present case the procedure of Hayman and Kinoshita was modified in that the final chromatography step was omitted in the preparation of the enzyme from bovine lens.
# [2] = system: galactosemic rats; assay: lowering of dulcitol (galactitol) accumulation in tissues of galactosemic rats; assay type: in vivo, rat (male Sprague-Dawley); settings: for % Lowering dulcitol accumulation IN VIVO, D: Table 1, diaphragm
# Procedure: Such experiments are exemplified hereinbelow after the listing of the following general comments pertaining to these experiments:
# Male Sprague-Dawley rats, weighing approximately 90 grams were separated into groups of equal average body weight, with six animals per group. The animals were housed in cages of six animals each and maintained on 12 hour night/12 hour day cycles. Except as otherwise noted, the animals were given food and water ad libitum.
# On day 1, the galactosemic control group and all drug-treated groups were given access to 20% galactose chow (Bio-Serv, Frenchtown, NJ). Animals in the control group were given access to 20% glucose chow (Bio-Serv). Test compounds were administered either in the diet or by gavage as a suspension in 2% Tween 80 in saline. In experiments, in which gavage dosing was used, the animals were administered the test compound daily at approximately the same hour each day. Food intake and body weight were determined twice during the course of the experiment. In cases in which the compound was administered in the diet, the average dose was calculated on the basis of the actual average food intake during the experiment.
# On the morning of day 5, all animals were fasted; beginning two hours later the animals were decapitated and the lenses, sciatic nerves, and a 50-100 mg portion of the diaphragm were removed, weighed, and frozen in porcelain plates on dry ice.
# Only two minor reagent changes were made: (a) the rinsing mixture was an aqueous 5% (w/v) trichloroacetic acid solution and (b) the stock solution was prepared by dissolving 25 mg of dulcitol in 100 mL of an aqueous trichloroacetic acid solution. [N.B.: For each experiment the average value found in the tissue from rats fed the glucose diet was subtracted from the individual values found in the corresponding tissue in galactose-fed rats to obtain the amount of polyol accumulated.]
# The figures under L, N and D represent the percentage decrease of galactitol accumulation in the tissues of the lens, sciatic nerve, and diaphragm, respectively, for treated rats as compared to untreated rats.
# [3] = system: aldose reductase; settings: reported in U.S. Pat. No. 4,568,693; cited from earlier work
SMILES,"inhibition at 10 µM ([1]; Table 1, 10^-5 M)",inhibition at 1 µM ([1]; Table 1),inhibition at 0.1 µM ([1]; Table 1),other results
CSc1nc(C2CCCCC2)nc(OCC(=O)O)c1C#N [Example 15 (Table 1)],90%,90%,74%,–
"CC(C)(C)c1nc(OCC(=O)O)c(C#N)c(SCC2CCCCC2)n1 [Example 1 (Table 1), [[5-Cyano-6-[(cyclohexylmethyl)thio]-2-(1,1-dimethylethyl)-4-pyrimidinyl]oxy]acetic Acid]",97%,96%,88%,–
CC(C)Sc1nc(C(C)(C)C)nc(OCC(=O)O)c1C#N [Example 12 (Table 1)],92%,91%,89%,"% Lowering dulcitol accumulation IN VIVO, D ([2]; 82 mg/kg): 19%"
N#Cc1c(OCC(=O)O)nc(-c2cccc3ccccc23)nc1-c1ccccc1 [Example 5 (Table 2)],–,–,–,"inhibition at 10 µM ([1]; Table 2, 10^-5 M): 79%; inhibition at 1 µM ([1]; Table 2): 76%; inhibition at 0.1 µM ([1]; Table 2): 53%"
Cc1nc(-c2ccccc2)nc(OCC(=O)O)c1C#N,–,–,–,"inhibition at 10 µM ([1]; Table 2, 10^-5 M): 92%; inhibition at 1 µM ([1]; Table 2): 88%; inhibition at 0.1 µM ([1]; Table 2): 79%"
CCCc1nc(OCC(=O)O)c(C#N)c(SC)n1 [Example 7 (Table 1)],92%,89%,74%,–
"N#Cc1c(Cc2cccc3ccccc23)nc(-c2cccc3c(Br)cccc23)nc1OCC(=O)O [Example 1 (Table 2), [[2-(5-Bromo-1-naphthalenyl)-5-cyano-6-[(1-naphthalenyl)methyl]-4-pyrimidinyl]oxy]acetic Acid]",–,–,–,"inhibition at 10 µM ([1]; Table 2, 10^-5 M): 90%; inhibition at 1 µM ([1]; Table 2): 85%; inhibition at 0.1 µM ([1]; Table 2): 46%"
CC(C)(C)c1nc(OCC(=O)O)c(C#N)c(SCc2ccc(Br)cc2F)n1 [Example 2 (Table 1)],–,93%,93%,"inhibition at 10 µM [1]: 98%; % Lowering dulcitol accumulation IN VIVO, D ([2]; 99 mg/kg): 47%"
Cc1nc(-c2cccc3ccccc23)nc(OCC(=O)O)c1C#N [Example 3 (Table 2)],–,–,–,"inhibition at 10 µM ([1]; Table 2, 10^-5 M): 93%; inhibition at 1 µM ([1]; Table 2): 85%; inhibition at 0.1 µM ([1]; Table 2): 46%"
CSc1nc(CC(C)(C)C)nc(OCC(=O)O)c1C#N [Example 4 (Table 1)],95%,96%,85%,"% Lowering dulcitol accumulation IN VIVO, D ([2]; 98 mg/kg): 22%"
CSc1nc(C(C)(C)C)nc(OCC(=O)O)c1C#N [Example 3 (Table 1)],89%,88%,82%,"% Lowering dulcitol accumulation IN VIVO, D ([2]; 83 mg/kg): 32%"
"COc1ccc2c(C(=S)N(C)CC(=O)O)cccc2c1C(F)(F)F [tolrestat, N-[[6-methoxy-5-(trifluoromethyl)-1-naphthalenyl]-thioxomethyl]-N-methylglycine, reference compound]",–,–,–,inhibitor of aldose reductase [3]: effective inhibitor of aldose reductase
CSc1nc(C(C)C)nc(OCC(=O)O)c1C#N [Example 5 (Table 1)],–,97%,88%,inhibition at 10 µM [1]: 98%
N#Cc1c(OCC(=O)O)nc(-c2ccccc2)nc1-c1ccccc1 [Example 4 (Table 2)],–,–,–,"inhibition at 0.1 µM ([1]; Table 2): 85%; % Lowering dulcitol accumulation IN VIVO, L ([2]; Table 2, lens, 100 mg/kg): 17%"
CC(C)c1nc(-c2cccc3c(Br)cccc23)nc(OCC(=O)O)c1C#N [Example 6 (Table 2)],–,–,–,"inhibition at 10 µM ([1]; Table 2, 10^-5 M): 94%; inhibition at 1 µM ([1]; Table 2): 90%; inhibition at 0.1 µM ([1]; Table 2): 53%"
CSc1nc(-c2cccs2)nc(OCC(=O)O)c1C#N [Example 17 (Table 1)],–,97%,92%,inhibition at 10 µM [1]: 98%
CCCCCCSc1nc(C(C)(C)C)nc(OCC(=O)O)c1C#N [Example 11 (Table 1)],–,–,–,"% Lowering dulcitol accumulation IN VIVO, D ([2]; 112 mg/kg): 60%"

# More lines, main results first:
"inhibition at 10 µM ([1]; Table 1, 10^-5 M)",inhibition at 1 µM ([1]; Table 1),inhibition at 0.1 µM ([1]; Table 1),SMILES,other results
86%,85%,82%,CC(C)(C)c1nc(OCC(=O)O)c(C#N)c(SCc2ccccc2)n1 [Example 16 (Table 1)],"% Lowering dulcitol accumulation IN VIVO, D ([2]; 97 mg/kg): 67%"
90%,84%,55%,CSc1nc(C)nc(OCC(=O)O)c1C#N [Example 13 (Table 1)],–
95%,93%,82%,CSc1nc(-c2ccc(Br)cc2)nc(OCC(=O)O)c1C#N [Example 9 (Table 1)],"% Lowering dulcitol accumulation IN VIVO, D ([2]; 114 mg/kg): 27%"
91%,90%,78%,CSc1nc(Cc2ccccc2)nc(OCC(=O)O)c1C#N,–
95%,95%,95%,CC(C)(C)c1nc(OCC(=O)O)c(C#N)c(SCc2ccc(Br)cc2)n1 [Example 10 (Table 1)],"% Lowering dulcitol accumulation IN VIVO, D ([2]; 135 mg/kg): 58%"
92%,87%,75%,CSc1nc(-c2ccccc2)nc(OCC(=O)O)c1C#N [Example 14 (Table 1)],"% Lowering dulcitol accumulation IN VIVO, D ([2]; 96 mg/kg): 55%"
95%,91%,73%,N#Cc1c(OCC(=O)O)nc(C2CCCCC2)nc1SCc1ccccc1 [Example 8 (Table 1)],–
